# Data from patent US20080039328A1, “Post Harvest Control of Genetically Modified Crop Growth Employing D-Amino Acid Compounds” (BASF PLANT SCIENCE GMBH, priority 2004, published 2008).
# Entries after “also recorded” stand apart in the source; their conditions may differ.
# Experiments:
# DAAO = target: T1, DAAO (Rhodotorula toruloides, UniProt P80324); experiment: DAAO incubation of cell-free plant extracts, keto acid production by HPLC; type: biochemical, Rhodotorula gracilis; conditions: cell-free extracts from dao1 transgenic line 10:7
# T1 construct: expressed in transfected cells; host or cells: Arabidopsis thaliana (Col-0), dao1 transgenic line 10:7, transformed with pPCV702:dao1 (CaMV 35S); crude soluble protein extract
# T1 sequence (P80324 25-368): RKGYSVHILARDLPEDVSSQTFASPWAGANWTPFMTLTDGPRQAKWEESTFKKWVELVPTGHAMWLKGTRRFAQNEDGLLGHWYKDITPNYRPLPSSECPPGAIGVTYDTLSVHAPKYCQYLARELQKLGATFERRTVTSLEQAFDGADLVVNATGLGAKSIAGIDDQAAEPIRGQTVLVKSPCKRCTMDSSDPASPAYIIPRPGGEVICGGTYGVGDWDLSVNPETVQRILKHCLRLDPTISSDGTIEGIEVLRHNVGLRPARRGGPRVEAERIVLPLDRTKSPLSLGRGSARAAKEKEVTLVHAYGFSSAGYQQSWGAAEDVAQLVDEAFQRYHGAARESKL
# Procedure: Soluble proteins were extracted by shaking 0.1 g samples of plant material that had been finely pulverized in a 1.5 ml Eppendorf tube in 1 ml of 0.1 M potassium phosphate buffer, pH 8. DAAO activity was then assayed as follows. Reaction mixtures were prepared containing 2,120 μl of 0.1 M potassium phosphate buffer, pH 8, 80 μl of crude protein extract and 100 μl of 0.3 M D-alanine. The samples were incubated for 2 h at 30° C. The enzyme activity was then assessed, by measuring the increase in absorbance at 220 nm (E=1.090 M^−1 cm^−1) associated with the conversion of D-alanine to pyruvate, after transferring the test tubes to boiling water for […] to stop the reaction. In control reactions, D-alanine was added immediately before boiling. One unit of DAAO activity is defined as the turnover of one micromole of substrate per minute, and activity was expressed per gram plant biomass (fresh weight). The breakdown of D-isoleucine and D-valine in DAAO incubations, and the associated production of 3-methyl-2-oxopentanoate and 3-methyl-2-oxobutanoate, were analyzed by high-performance liquid chromatography. In other respects the reactions were carried out as described above.
# Presumably endogenous transaminase may be specific for the L-enantiomer, so the corresponding D-enantiomer is not metabolized in wildtype plants, but only in plants expressing DAAO. […]
# [1] = test system: wild-type Arabidopsis thaliana; experiment: Growth of wild-type A. thaliana plantlets on medium with D-amino acids; type: in vivo
# Procedure: Wild type Arabidopsis thaliana plantlets were grown on half-concentrated Murashige-Skoog medium (0.5% (wt/vol) sucrose, 0.8% (wt/vol) agar) supplemented with the indicated D-amino acid at either 3 mM (Panel A) or 30 mM (Panel B).
# (§1) FIG. 4 D-amino acid dose responses of dao1 transgenic and wild-type A. thaliana. (a-d) Growth of dao1 transgenic line 3:7 (white), 10:7 (light gray), 13:4 (gray) and wild-type (black) plants, in fresh weight per plant, on media containing various concentrations of D-serine, D-alanine, D-isoleucine and D-valine in half-strength MS with 0.5% (wt/vol) sucrose and 0.8% (wt/vol) agar. Different concentration ranges were used for different ID-amino acids. The plants were grown for 10 d after germination under 16 h photoperiods at 24° C.; n=10±s.e.m., except for plants grown on D-isoleucine, where smaller Petri dishes were used, (n=6±s.e.m.).
# (§2) T1 seeds of transgenic Arabidopsis plants were surface-sterilized and sown in Petri plates that were sealed with gas-permeable tape. The growth medium was half strength MS19 with 0.5% (wt/vol) sucrose and 0.8% (wt/vol) agar, plus 3 mM D-alanine, 3 mM D-serine or 50 μg/ml kanamycin as the selective agent. Plants were grown for 5 d after germination with a 16 h photoperiod at 24° C. To evaluate the selection efficiency on different substrates, 2,074, 1,914 and 1,810 T1 seeds were sown on D-alanine-, D-serine- and kanamycin-selective plates, respectively, and the number of surviving seedlings was counted (44, 32 and 43, respectively).
# [2] = test system: dao1 transgenic A. thaliana; experiment: Growth of dao1 (DAAO) transgenic A. thaliana on medium with D-amino acids; type: in vivo, Arabidopsis thaliana
# Procedure: as §1, §2
# The T-DNA contained both 35S:dao1 and pNos:nptII, allowing D-amino acid and kanamycin selection to be compared in the same lot of seeds.
# Therefore, plants containing the construct were tested as described above on two sets of media, one containing D-isoleucine and the other containing D-valine at various concentrations, to assess whether DAAO could also be used as a counter-selection marker. Unambiguous counter-selection selection was achieved when seeds were sown on either D-isoleucine or D-valine at concentrations greater than 10 mM (FIG. 4 c,d).
# [3] = test system: Transgenic Zea mays plants (DAAO from Rhodotorula gracilis); experiment: Greenhouse spraying of mixed plantlets on soil with D-isoleucine; type: in vivo; conditions: sprayed, 10 mM, 20 mM, 30 mM in isotonic salt solution, pH 7.0, soil, green-house
# Procedure: (§3) Transgenic Arabidopsis, Brassica napus, and Zea mays plants are generated as described above using either construct I (SEQ ID NO: 15) or construct II (SEQ ID NO: 16) for Agrobacterium mediated transformation. Transgenic plants are selected using the negative selection marker property of the D-amino acid oxidase on medium comprising 0.3, 3 or 30 mM D-alanine (or D-serine). Resulting transgenic plants are selfed to obtain homozygous plants. Homozygous plants are propagated over 2 to 3 generations to ensure stability of the transgenic insertion.
# (§4) Seeds of transgenic plants are mixed with seeds of the corresponding non-transgenic line (used for transformation). Various proportions of transgenic versus non-transgenic seeds are used (1:1, 1:10, 1:100).
# (§5) Seeds are sown on standard soil under green-house conditions. After germination, developing plantlets were sprayed at various developmental steps with preparations of D-isoleucine (final concentration of 10 mM, 20 mM, 30 mM, respectively in isotonic salt solution, pH 7.0).
# [4] = test system: Transgenic Arabidopsis plants (DAAO from Rhodotorula gracilis); experiment: as above; type: in vivo; conditions: sprayed, 10 mM, 20 mM, 30 mM in isotonic salt solution, pH 7.0, soil, green-house
# Procedure: as §3, §4, §5
# [5] = test system: non-transgenic Zea mays plants; experiment: as above; type: in vivo; conditions: sprayed, 10 mM, 20 mM, 30 mM in isotonic salt solution, pH 7.0, soil, green-house
# Procedure: as §3, §4, §5
# [6] = test system: Transgenic Brassica napus plants (DAAO from Rhodotorula gracilis); experiment: as above; type: in vivo; conditions: sprayed, 10 mM, 20 mM, 30 mM in isotonic salt solution, pH 7.0, soil, green-house
# Procedure: as §3, §4, §5
# [7] = test system: non-transgenic Brassica napus plants; experiment: as above; type: in vivo; conditions: sprayed, 10 mM, 20 mM, 30 mM in isotonic salt solution, pH 7.0, soil, green-house
# Procedure: as §3, §4, §5
# [8] = test system: non-transgenic Arabidopsis plants; experiment: as above; type: in vivo; conditions: sprayed, 10 mM, 20 mM, 30 mM in isotonic salt solution, pH 7.0, soil, green-house
# Procedure: as §3, §4, §5
# [9] = various concentrations in half-strength MS, 10 d after germination
smiles,measurement,setting,value
CC[C@@H](C)[C@@H](N)C(=O)O [D-isoleucine],Increase in production of 3-methyl-2-oxopentanoate compared to extracts of wild-type plants,DAAO,15 fold
same,Effect on plant growth (FIG. 3),"[1]; 3 mM or 30 mM in half-concentrated Murashige-Skoog medium, wild type plantlets",no significant effects
same,Response of wild-type plants (compared with DAAO lines),[1]; in vivo,"grew well, with no sign of toxicity"
same,Effect on wild-type plantlets (FIG. 2),[1]; treated with 30 mM,no severe damage
same,Growth of wild-type plants (FIG. 4),[1]; [9],not toxic; also recorded: minor effects; also recorded: not the wild-type plants
same,Response of thirteen individual lines expressing DAAO,[2]; in vivo,effectively killed
same,Effect on transgenic plantlets comprising DAAO gene (FIG. 2),[2]; treated with 30 mM,toxic effect
same,Growth of plants expressing DAAO (FIG. 4),[2]; [9],strong negative influence on the growth; also recorded: inhibit growth
same,Transgenic plants able to reach maturity,[3],None
same,Transgenic plants able to reach maturity,[4],None
same,Effect of the treatment on non-transgenic plants,[5],unaffected
same,Transgenic plants able to reach maturity,[6],None
same,Effect of the treatment on non-transgenic plants,[7],unaffected
same,Effect of the treatment on non-transgenic plants,[8],unaffected
